According to the CheMixHub viscosity set:

Test: xn = mol fraction of the nth substance listed

O=C1CCCO1 + CC#N
Conditions | viscosity [mPa·s]
293.15 K, 101 kPa, x2 = 0.1054 | 1.604
293.15 K, 101 kPa, x2 = 0.1934 | 1.392
293.15 K, 101 kPa, x2 = 0.3007 | 1.172
293.15 K, 101 kPa, x2 = 0.4029 | 0.998
293.15 K, 101 kPa, x2 = 0.5036 | 0.849
293.15 K, 101 kPa, x2 = 0.6012 | 0.732
293.15 K, 101 kPa, x2 = 0.702 | 0.608
293.15 K, 101 kPa, x2 = 0.8008 | 0.518
293.15 K, 101 kPa, x2 = 0.8993 | 0.433
298.15 K, 101 kPa, x2 = 0.1054 | 1.484
298.15 K, 101 kPa, x2 = 0.1934 | 1.292
298.15 K, 101 kPa, x2 = 0.3007 | 1.092
298.15 K, 101 kPa, x2 = 0.4029 | 0.934
298.15 K, 101 kPa, x2 = 0.5036 | 0.8
298.15 K, 101 kPa, x2 = 0.6012 | 0.691
298.15 K, 101 kPa, x2 = 0.702 | 0.576
298.15 K, 101 kPa, x2 = 0.8008 | 0.495
298.15 K, 101 kPa, x2 = 0.8993 | 0.414
298.15 K, 101.33 kPa, x2 = 0.0503 | 1.591
298.15 K, 101.33 kPa, x2 = 0.0938 | 1.471
298.15 K, 101.33 kPa, x2 = 0.1387 | 1.375
298.15 K, 101.33 kPa, x2 = 0.2001 | 1.253
298.15 K, 101.33 kPa, x2 = 0.249 | 1.164
298.15 K, 101.33 kPa, x2 = 0.3005 | 1.074
298.15 K, 101.33 kPa, x2 = 0.3969 | 0.925
298.15 K, 101.33 kPa, x2 = 0.4459 | 0.86
298.15 K, 101.33 kPa, x2 = 0.4998 | 0.79
298.15 K, 101.33 kPa, x2 = 0.5515 | 0.728
298.15 K, 101.33 kPa, x2 = 0.5979 | 0.676
298.15 K, 101.33 kPa, x2 = 0.7014 | 0.571
298.15 K, 101.33 kPa, x2 = 0.7522 | 0.525
298.15 K, 101.33 kPa, x2 = 0.8006 | 0.485
298.15 K, 101.33 kPa, x2 = 0.8359 | 0.456
298.15 K, 101.33 kPa, x2 = 0.8994 | 0.409
298.15 K, 101.33 kPa, x2 = 0.9532 | 0.365
303.15 K, 101 kPa, x2 = 0.1054 | 1.378
303.15 K, 101 kPa, x2 = 0.1934 | 1.204
303.15 K, 101 kPa, x2 = 0.3007 | 1.021
303.15 K, 101 kPa, x2 = 0.4029 | 0.877
303.15 K, 101 kPa, x2 = 0.5036 | 0.756
303.15 K, 101 kPa, x2 = 0.6012 | 0.655
303.15 K, 101 kPa, x2 = 0.702 | 0.547
303.15 K, 101 kPa, x2 = 0.8008 | 0.473
303.15 K, 101 kPa, x2 = 0.8993 | 0.395
308.15 K, 101 kPa, x2 = 0.1054 | 1.284
308.15 K, 101 kPa, x2 = 0.1934 | 1.126
308.15 K, 101 kPa, x2 = 0.3007 | 0.958
308.15 K, 101 kPa, x2 = 0.4029 | 0.827
308.15 K, 101 kPa, x2 = 0.5036 | 0.716
308.15 K, 101 kPa, x2 = 0.6012 | 0.621
308.15 K, 101 kPa, x2 = 0.702 | 0.52
308.15 K, 101 kPa, x2 = 0.8008 | 0.452
308.15 K, 101 kPa, x2 = 0.8993 | 0.378
313.15 K, 101 kPa, x2 = 0.1054 | 1.201
313.15 K, 101 kPa, x2 = 0.1934 | 1.055
313.15 K, 101 kPa, x2 = 0.3007 | 0.902
313.15 K, 101 kPa, x2 = 0.4029 | 0.781
313.15 K, 101 kPa, x2 = 0.5036 | 0.68
313.15 K, 101 kPa, x2 = 0.6012 | 0.591
313.15 K, 101 kPa, x2 = 0.702 | 0.496
313.15 K, 101 kPa, x2 = 0.8008 | 0.431
313.15 K, 101 kPa, x2 = 0.8993 | 0.363
318.15 K, 101 kPa, x2 = 0.1054 | 1.125
318.15 K, 101 kPa, x2 = 0.1934 | 0.991
318.15 K, 101 kPa, x2 = 0.3007 | 0.85
318.15 K, 101 kPa, x2 = 0.4029 | 0.74
318.15 K, 101 kPa, x2 = 0.5036 | 0.647
318.15 K, 101 kPa, x2 = 0.6012 | 0.563
318.15 K, 101 kPa, x2 = 0.702 | 0.473
318.15 K, 101 kPa, x2 = 0.8008 | 0.413
318.15 K, 101 kPa, x2 = 0.8993 | 0.344
323.15 K, 101 kPa, x2 = 0.1054 | 1.058
323.15 K, 101 kPa, x2 = 0.1934 | 0.934
323.15 K, 101 kPa, x2 = 0.3007 | 0.803
323.15 K, 101 kPa, x2 = 0.4029 | 0.702
323.15 K, 101 kPa, x2 = 0.5036 | 0.617
323.15 K, 101 kPa, x2 = 0.6012 | 0.538
323.15 K, 101 kPa, x2 = 0.702 | 0.452
323.15 K, 101 kPa, x2 = 0.8008 | 0.396
323.15 K, 101 kPa, x2 = 0.8993 | 0.33

C[N+](C)(C)CC(=O)[O-] + CC(=O)CCC(=O)O
viscosity [mPa·s]
Conditions | 298.15 K | 303.15 K | 308.15 K | 313.15 K | 318.15 K | 323.15 K
100 kPa, x2 = 0.667 | 1342 | 857.3 | 572.3 | 393.6 | 268.9 | 194.2
101 kPa, x2 = 0.7 | – | 838 | – | – | – | 221
101 kPa, x2 = 0.9 | 117.7 | – | – | – | – | –

N#C[S-].[NH4+] + CC(=O)[O-].CC[n+]1ccn(C)c1
viscosity [mPa·s], 101 kPa
Conditions | x1 = 0.02 | x1 = 0.1002 | x1 = 0.1998 | x1 = 0.2514 | x1 = 0.3001 | x1 = 0.3199 | x1 = 0.3413
298.15 K | 136.6 | 160.2 | 190.7 | 198.6 | 194.6 | 195.4 | 196.4
303.15 K | 100.9 | 117.6 | 139.3 | 144.4 | 141.9 | 142.8 | 143.6
308.15 K | 76.44 | 88.53 | 104 | 107.4 | 105.9 | 106.6 | 107.3
313.15 K | 59.28 | 68.07 | 79.27 | 81.46 | 80.5 | 81.14 | 81.73
318.15 K | 46.92 | 53.32 | 61.47 | 62.88 | 62.26 | 62.81 | 63.32
323.15 K | 37.79 | 42.45 | 48.4 | 49.28 | 48.89 | 49.35 | 49.79

CCCC#N + CC(C)(C)O
viscosity [mPa·s]
Conditions | 298.15 K | 303.15 K | 308.15 K | 313.15 K | 318.15 K
101 kPa, x2 = 0.0941 | 0.5487 | 0.5396 | 0.519 | – | –
101 kPa, x2 = 0.1845 | 0.5808 | 0.5686 | 0.5478 | – | –
101 kPa, x2 = 0.2837 | 0.6365 | 0.6123 | 0.5852 | – | –
101 kPa, x2 = 0.3758 | 0.7071 | 0.6764 | 0.6373 | – | –
101 kPa, x2 = 0.4766 | 0.8042 | 0.7523 | 0.6952 | – | –
101 kPa, x2 = 0.5782 | 0.9457 | 0.8545 | 0.7793 | – | –
101 kPa, x2 = 0.6804 | 1.211 | 1.071 | 0.9743 | – | –
101 kPa, x2 = 0.7836 | 1.61 | 1.417 | 1.268 | – | –
101 kPa, x2 = 0.8906 | 2.345 | 2.01 | 1.734 | – | –
101.33 kPa, x2 = 0.0953 | 0.575 | 0.54 | 0.51 | 0.481 | 0.456
101.33 kPa, x2 = 0.1938 | 0.613 | 0.573 | 0.537 | 0.505 | 0.476
101.33 kPa, x2 = 0.2941 | 0.669 | 0.622 | 0.579 | 0.54 | 0.506
101.33 kPa, x2 = 0.3922 | 0.749 | 0.689 | 0.636 | 0.589 | 0.546
101.33 kPa, x2 = 0.4949 | 0.867 | 0.788 | 0.719 | 0.66 | 0.607
101.33 kPa, x2 = 0.591 | 1.03 | 0.923 | 0.834 | 0.753 | 0.685
101.33 kPa, x2 = 0.695 | 1.297 | 1.138 | 1.006 | 0.895 | 0.802
101.33 kPa, x2 = 0.7957 | 1.727 | 1.476 | 1.272 | 1.107 | 0.974
101.33 kPa, x2 = 0.9002 | 2.573 | 2.103 | 1.746 | 1.464 | 1.245

COC(=O)CC(=O)OC + CC(C)=O
303.15 K, 101 kPa
Conditions | viscosity [mPa·s]
x1 = 0.0666 | 0.4127
x1 = 0.139 | 0.5371
x1 = 0.2164 | 0.6676
x1 = 0.3009 | 0.8036
x1 = 0.392 | 0.9488
x1 = 0.4919 | 1.094
x1 = 0.6008 | 1.258
x1 = 0.7208 | 1.429
x1 = 0.8531 | 1.614

COc1ccccc1O + CC(C)=O
303.15 K, 101 kPa
Conditions | viscosity [mPa·s]
x2 = 0.1 | 3.67
x2 = 0.2 | 2.95
x2 = 0.3 | 2.35
x2 = 0.4 | 1.82
x2 = 0.5 | 1.26
x2 = 0.6 | 1.03
x2 = 0.7 | 0.755
x2 = 0.8 | 0.573
x2 = 0.9 | 0.44

Brc1ccccc1 + CC(C)CO
viscosity [mPa·s], 101.33 kPa
Conditions | x1 = 0.1065 | x1 = 0.1936 | x1 = 0.2949 | x1 = 0.4015 | x1 = 0.5016 | x1 = 0.6014 | x1 = 0.7006 | x1 = 0.7967 | x1 = 0.8995
298.15 K | 2.649 | 2.205 | 1.831 | 1.532 | 1.36 | 1.231 | 1.144 | 1.088 | 1.055
313.15 K | 1.727 | 1.483 | 1.28 | 1.116 | 1.022 | 0.9534 | 0.9062 | 0.8769 | 0.8637
